Laboratory results from patent US20230355647A1, “Marker for determining anti-cancer effects of mitochondrial oxidative phosphorylation pathway inhibitor” (NANJING SHIJIANG MEDICINE TECHNOLOGY CO., LTD, priority 2020, published 2023).

How the values were obtained:
OCI-M1 = test: Cell viability (CellTiter-Glo), OCI-M1; assay type: cell-based; details: OCI-M1 cell line, 3-4 days of culture
Experimental: (§1) Cell viability was detected using the Promega CellTiter-Glo kit, the kit reflected cell viability by directly measuring intracellular ATP content. The inhibitory effect (IC50 value) of Gboxin, a mitochondrial oxidative phosphorylation pathway inhibitor, on different tumor cell lines was tested in the Example. The name, source, and culture condition of each tumor cell line were as follows:
Cell line OCI-M1 (DSMZ, No. ACC-529) was cultured in 20% fetal bovine serum-containing IMDM medium (+P/S).
(§2) The above tumor cells were cultured in the relevant medium (+P/S), and incubated for 3 h, then the gradient diluted Gboxin was added, and IC50 (50% inhibiting concentration) was measured after 3-4 days of culture.

OCI-AML-4 = test: Cell viability (CellTiter-Glo), OCI-AML-4; assay type: cell-based; details: OCI-AML-4 cell line, 3-4 days of culture
Experimental: as §1
Cell line OCI-AML-4 (DSMZ, No. ACC-729) was cultured in alpha-MEM medium containing 20% fetal bovine serum and 20% volume fraction of 5637 cell line adjusted medium (+P/S).
as §2

CCRF-CEM = test: Cell viability (CellTiter-Glo), CCRF-CEM; assay type: cell-based; details: Homo sapiens; CCRF-CEM cell line, 3-4 days of culture
Experimental: as §1
Cell line CCRF-CEM (ATCC, No. CCL-119) was cultured in 10% fetal bovine serum-containing RPMI1640 medium (+P/S).
as §2

[1] = tested on: NCI-H82 cell with overexpression of NNMT protein and/or knockdown of DNMT1 expression; test: Sensitivity of NCI-H82 after NNMT overexpression and/or DNMT1 knockdown, intracellular ATP detection; assay type: cell-based, human; details: FIG. 21, FIG. 22
Source text: The NCI-H82 cell overexpressing NNMT protein was obtained by inserting the NNMT gene into NCI-H82 cell using a viral vector. The expression of DNMT1 in NCI-H82 cells was knocked down using shRNA transfection. The changes in sensitivity of cells to mitochondrial oxidative phosphorylation pathway inhibitors (Gboxin, Oligomycin A) was investigated using intracellular ATP detection methods after overexpression of NNMT protein and/or knockdown of DNMT1 expression. The experiment result was shown in FIG. 21 and FIG. 22, wherein, “Vector” referred to NCI-H82 cell transfected with empty virus as control group.

NCI-H1048 = test: Cell viability (CellTiter-Glo), NCI-H1048; assay type: cell-based; details: Homo sapiens; NCI-H1048 cell line, 3-4 days of culture
Experimental: as §1
Cell line NCI-H1048 (ATCC, No. CRL-5853) was cultured in 5% fetal bovine serum-containing HITES medium (+P/S).
as §2

MIA PaCa-2 = test: Cell viability (CellTiter-Glo), MIA PaCa-2; assay type: cell-based; details: Homo sapiens; MIA PaCa-2 cell line, 3-4 days of culture
Experimental: as §1
Cell line MIA PaCa-2 (ATCC, No. CRL-1420) was cultured in 10% fetal bovine serum-containing DMEM medium (+P/S).
as §2

ATF4 stress pathway = test: Western Blot of ATF4 in tumor cells after inhibitor treatment; assay type: cell-based, human; details: 1 μM or 3 μM Gboxin, 1 μM Oligomycin A, 12 h; for activity of ATF4 stress pathway: FIG. 3; for ATF4 stress pathway (ATF4 content): FIG. 2
Experimental: The inhibition of mitochondrial oxidative phosphorylation pathway could cause the activation of ATF4 stress pathway and the decrease of mTOR pathway activity, the activity of the mTOR pathway was reflected by the expression level of phosphorylated ribosomal protein S6 (ie, p-S6).
(§3) The tumor cells NCI-H82, G-401 and WSU-DLCL2 were cultured in the relevant 10% FBS-containing medium (+p/s), and incubated overnight, then 1 μM Gboxin, 3 μM Gboxin or 1 μM Oligomycin A as shown in FIG. 2 was added. After 12 h of incubation, the content of ATF4 and p-S6 protein was detected using Western Blot, the experiment result was shown in FIG. 2.
as §3, with “The cell lines SF126, CFPAC-1” for “The tumor cells NCI-H82, G-401”, “and 786-O” for “and WSU-DLCL2”, “FIG. 3” for “FIG. 2”, “FIG. 3.” for “FIG. 2.”

SNU-398 = test: Cell viability (CellTiter-Glo), SNU-398; assay type: cell-based; details: Homo sapiens; SNU-398 cell line, 3-4 days of culture
Experimental: as §1
Cell line SNU-398 (ATCC, No. CRL-2233) was cultured in 10% fetal bovine serum-containing RPMI1640 medium (+P/S).
as §2

769-P = test: Cell viability (CellTiter-Glo), 769-P; assay type: cell-based; details: Homo sapiens; 769-P cell line, 3-4 days of culture
Experimental: as §1
Cell line 769-P (ATCC, No. CRL-1933) was cultured in 10% fetal bovine serum-containing RPMI1640 medium (+P/S).
as §2

SU-DHL-2 = test: Cell viability (CellTiter-Glo), SU-DHL-2; assay type: cell-based; details: Homo sapiens; SU-DHL-2 cell line, 3-4 days of culture
Experimental: as §1
Cell line SU-DHL-2 (ATCC, No. CRL-2956) was cultured in 10% fetal bovine serum-containing RPMI1640 medium (+P/S).
as §2

COLO 320HSR = test: Cell viability (CellTiter-Glo), COLO 320HSR; assay type: cell-based; details: Homo sapiens; COLO 320HSR cell line, 3-4 days of culture
Experimental: as §1
Cell line COLO 320HSR (ATCC, No. CCL-220.1) was cultured in 10% fetal bovine serum-containing RPMI1640 medium (+P/S).
as §2

AM-38 = test: Cell viability (CellTiter-Glo), AM-38; assay type: cell-based; details: Homo sapiens; AM-38 cell line, 3-4 days of culture
Experimental: as §1
Cell line AM-38 (JCRB, No. IF050492) was cultured in EMEM medium containing 20% heat-inactivated fetal bovine serum (+P/S).
as §2

[2] = tested on: mitochondrial oxidative phosphorylation pathway; test: Oxygen consumption of NCI-H82 cell, Seahorse XFe metabolic analyzer; assay type: cell-based, human; details: 2 μM inhibitor, detection within 0.5 h, compared with control group, FIG. 1 (n=3)
Source text: The oxygen was mainly consumed by mitochondrial oxidative phosphorylation pathway in the cell, thus the determination of oxygen consumption rate (OCR) of mitochondria could directly reflect the activity of mitochondrial oxidative phosphorylation pathway. The oxygen consumption of NCI-H82 cell in the presence or absence of Oligomycin A, Gboxin, S-Gboxin and IACS-010759, mitochondrial oxidative phosphorylation pathway inhibitors, was detected using Seahorse XFe metabolic analyzer in the present Example. NCI-H82 cell (ATCC, No. […] The control group in absence of mitochondrial oxidative phosphorylation pathway inhibitor was set. The detection of cell oxygen consumption was finished within 0.5 h.

With `CCc1n(CC(=O)O[C@@H]2C[C@H](C)CC[C@H]2C(C)C)c2ccccc2[n+]1C.[Cl-]` [Gboxin] the IC50 (OCI-M1) was 21.7 µM, the IC50 (OCI-AML-4) was 3.34 µM and the IC50 (CCRF-CEM) was 2.59 µM. For the same compound, the “sensitivity of NCI-H82 cell to the inhibitor” value ([1]; DNMT1 expression knocked down (sh-DNMT1 #1 or sh-DNMT1 #2) vs Vector) was “decreased”, the “sensitivity of NCI-H82 tumor cells to the inhibitor” value ([1]; NNMT overexpressed and DNMT1 knocked down simultaneously (ov-NNMT/sh-DNMT1 #1 and #2)) was “decreased more significantly” and the “sensitivity of NCI-H82 cell to the inhibitor” value ([1]; NNMT protein overexpressed alone (ov-NNMT) vs Vector) was “decreased”. For the same compound, the IC50 (NCI-H1048) was 4.34 µM, the IC50 (MIA PaCa-2) was 2.57 µM and the “activity of ATF4 stress pathway” value (ATF4 stress pathway; 786-O cells) was “no significant changes”. For the same compound, the “activity of ATF4 stress pathway” value (ATF4 stress pathway; CFPAC-1 cells) was “no significant changes”, the “ATF4 stress pathway (ATF4 content)” value (ATF4 stress pathway; G-401 cells) was “up-regulated” and the “ATF4 stress pathway (ATF4 content)” value (ATF4 stress pathway; NCI-H82 cells) was “up-regulated”. For the same compound, the “activity of ATF4 stress pathway” value (ATF4 stress pathway; SF126 cells) was “no significant changes”, the “ATF4 stress pathway (ATF4 content)” value (ATF4 stress pathway; WSU-DLCL2 cells) was “up-regulated” and the IC50 (SNU-398) was 4.17 µM. For the same compound, the IC50 (769-P) was > 30 µM, the IC50 (SU-DHL-2) was 0.97 µM and the IC50 (COLO 320HSR) was > 30 µM. The IC50 (AM-38) was 10.3 µM and the “oxygen consumption of NCI-H82 cells” value [2] was “significantly inhibit”.
